Source: PMC6369847 (International Journal of Nanomedicine, 2019)
In brackets after ≈: the same amount, converted by molar mass. Peptide text beside a SMILES is read from it. * marks the point of attachment. Stearoyl = CCCCCCCCCCCCCCCCCC(=O)*

Experiments:
MDA-MB-231 cells = experiment: Cytotoxicity test by MTT assay, MDA-MB-231; type: cell-based; settings: Homo sapiens, MDA-MB-231, 48 h
[1] = In vivo pharmacokinetic studies of PTX; design: species or system Sprague Dawley rats
MDA-MB-231 tumors = experiment: H&E staining and immunohistochemical analysis; type: in vivo, nude mice; settings: tumor sections at 14 days, n=5
[2] = Body weight of mice during the antitumor assay; type: in vivo; settings: tumor-bearing nude mice
[3] = Encapsulation efficiency and drug loading of micelles; type: physicochemical; settings: S-HM-3 concentration ranging from 0.1 to 0.7 mg/mL; data not shown
HUVECs = experiment: Transwell cell migration assay; type: cell-based, Human; settings: 24 hours, Avstin 10 µg/mL, S-HM-3, TSm, HTSm 9 µg/mL, n=3
[4] = In vivo pharmacokinetic studies of S-HM-3; design: species or system Sprague Dawley rats; settings: rat, background statement of the abstract
[5] = In vivo distribution studies of S-HM-3; design: species or system nude mice; settings: MDA-MB-231 tumor-bearing mice, vein injection, free S-HM-3
[6] = male, Sprague Dawley, rat, plasma, iv, 7 mg/kg

| Compound | IC50 (MDA-MB-231 cells) | V1 of PTX ([1]; SD rats, i.v. single dose, 7 mg/kg PTX) | CL of PTX ([1]; SD rats, i.v. single dose, 7 mg/kg PTX, 7 mg/kg) | Vd [1, 6] | half-life [1, 6] | antiangiogenesis effect (CD31, microvessel density) (MDA-MB-231 tumors) | toxicity judged from body weight ([2]; regimen of Table 1) | weight loss of mice during the 0–10 days ([2]; regimen of Table 1) | encapsulation efficiency of S-HM-3 [3] | endothelial cell MI rate (migration inhibition rate) (HUVECs) | half-life [4] | time at which S-HM-3 in organs reached the peak [5] | time at which S-HM-3 was nearly cleared from organs [5] | apoptosis in tumor cells (positive p53 rate) (MDA-MB-231 tumors) | body weight of mice during the test period ([2]; regimen of Table 1, 14 days) |
| --- | --- | --- | --- | --- | --- | --- | --- | --- | --- | --- | --- | --- | --- | --- | --- |
| CC(=O)O[C@H]1C(=O)[C@@]2(C)[C@H]([C@H](OC(=O)c3ccccc3)[C@]3(O)C[C@H](OC(=O)[C@H](O)[C@@H](NC(=O)c4ccccc4)c4ccccc4)C(C)=C1C3(C)C)[C@]1(OC(C)=O)CO[C@@H]1C[C@@H]2O [PTX, Paclitaxel] | 1.37 µg/mL (≈ 1.6 µM) | 0.62 ± 0.08 L/kg | 21.5 ± 2.83 mL/min/kg | 3.34 ± 0.5 L/kg | 1.79 ± 0.13 h | almost the same antiangiogenesis effect | high toxicity | obvious |  |  |  |  |  |  |  |
| CCCCCCCCCCCCCCCCCC(=O)N[C@H](C(=O)N[C@H](C(=O)N[C@@H](CCCNC(=N)N)C(=O)N[C@@H](CCCNC(=N)N)C(=O)N[C@@H](C)C(=O)N[C@@H](CC(=O)O)C(=O)N[C@@H](CCCNC(=N)N)C(=O)N[C@@H](C)C(=O)N[C@@H](C)C(=O)N[C@H](C(=O)N1CCC[C@H]1C(=O)NCC(=O)NCC(=O)NCC(=O)NCC(=O)N[C@@H](CCCNC(=N)N)C(=O)NCC(=O)N[C@@H](CC(=O)O)C(=O)O)C(C)C)C(C)C)[C@@H](C)CC [S-HM-3] (Stearoyl-IVRRADRAAVPGGGGRGD-OH; N-terminus and C-terminus assumed) |  |  |  |  |  | almost the same antiangiogenesis effect | very low toxicity or nontoxic |  | > 97% | 60.55% | 0.417 h | 24 min | 60 min | did not induce significant apoptosis | significantly increased |
| Avstin: positive control of the cell migration assay, 10 µg/mL |  |  |  |  |  |  |  |  |  | 69.89% |  |  |  |  |  |
